{"source": "patent US8834938B2", "about": "“Use of arsenic for cancer therapy protection” (Board of Regents of the University of Texas System, priority 2011, dated 2014)", "key": {"[1]": {"settings": "cited from earlier work"}, "[2]": {"settings": "in vivo; cited from earlier work"}, "certain animal tumors": {"system": "certain animal tumors", "settings": "in vivo; cited from earlier work"}, "[3]": {"settings": "oral; cited from earlier work"}, "[4]": {"settings": "cited from earlier work", "remark": "listed apart in the source"}, "[5]": {"settings": "patients with creatinine clearance >35 mL per minute; cited from earlier work"}, "[6]": {"settings": "mice; cited from earlier work"}, "[7]": {"settings": "in vivo; cited from earlier work", "remark": "listed apart in the source"}, "[8]": {"settings": "10 mg daily over 2 to 3 hours IV; cited from earlier work"}, "[9]": {"settings": "oral, 30 mg/m^2 to 100 mg/m^2; cited from earlier work"}, "[10]": {"system": "chronic myelogenous leukemia", "settings": "previously untreated chronic myelogenous leukemia; cited from earlier work"}, "[11]": {"system": "small intestine and bone marrow cells", "settings": "mouse, in vivo"}, "[12]": {"system": "small intestine and bone marrow cells", "settings": "mouse, in vivo", "remark": "listed apart in the source"}, "[13]": {"system": "Human lung carcinoma cells A549", "assay_type": "in vivo, mice", "settings": "5FU 30 mg/kg intravenous daily for one week"}, "[14]": {"system": "Human colon carcinoma cells, SW-480", "assay_type": "in vivo, mice", "settings": "5FU 30 mg/kg i.v. daily for one week"}, "[15]": {"system": "Human breast carcinoma cells, MDA-MB-231", "assay_type": "in vivo, mice", "settings": "5FU 30 mg/kg i.v. daily for one week"}, "[16]": {"settings": "in vivo, cited from earlier work"}, "multiple myeloma": {"system": "multiple myeloma", "settings": "oral administration; cited from earlier work"}, "[17]": {"settings": "in vivo; cited from earlier work", "remark": "listed apart in the source"}, "[18]": {"settings": "in vivo; cited from earlier work", "remark": "listed apart in the source"}}, "note": "Counter-ions that a name gives are not always drawn. Like-named read-outs stand apart in the source and are kept apart here. Starred links: 1 amine or outer side, 2 acyl side, 3 side chain; linkers in the order of their positions; H or OH if unused. Positions of bridges follow the written chain, without caps; N, C: chain ends. Non-standard residues stand in square brackets, D forms with d. Residues, ends and D or L forms follow the SMILES beside them. Chains are numbered I, II in the order given. Actinocin(9to1) = Cc1c2oc3c(C)ccc(C(=O)[*:1])c3nc-2c(C(=O)[*:2])c(N)c1=O; NMeV = CN[C@H](C(=O)O)C(C)C; Sar = CNCC(=O)O"}
{"compound": "CO[C@@]12[C@H](COC(N)=O)C3=C(C(=O)C(C)=C(N)C3=O)N1C[C@@H]1N[C@@H]12", "note": "[Mitomycin]", "values": [{"measurement": "Time required to reduce the serum concentration by 50%", "setting": "[1]; 30 mg bolus injection", "value": 17, "unit": "min"}, {"measurement": "Dose excreted unchanged in the urine", "setting": "[1]; in vivo", "value": "Approximately 10%"}]}
{"compound": "Cc1c2oc3c(C)ccc(C(=O)N[C@@H]4C(=O)N[C@H](C(C)C)C(=O)N5CCC[C@H]5C(=O)N(C)CC(=O)N(C)[C@@H](C(C)C)C(=O)O[C@@H]4C)c3nc-2c(C(=O)N[C@@H]2C(=O)N[C@H](C(C)C)C(=O)N3CCC[C@H]3C(=O)N(C)CC(=O)N(C)[C@@H](C(C)C)C(=O)O[C@@H]2C)c(N)c1=O", "note": "[Actinomycin D] (I: T[dV]P[Sar][NMeV] / II: T[dV]P[Sar][NMeV]; ester I:1-I:C, II:1-II:C; linker I:N-II:N via Actinocin(9to1))", "values": [{"measurement": "Blood-brain barrier passage", "setting": "[2]", "value": "does not pass the blood-brain barrier"}, {"measurement": "Dose excreted intact into the bile", "setting": "[2]", "value": "Half of the dose"}, {"measurement": "Dose excreted intact into the urine", "setting": "[2]", "value": 10, "unit": "%"}, {"measurement": "Half-life", "setting": "[2]", "value": "about 36 hr"}]}
{"compound": "N[C@H](Cc1ccc(N(CCCl)CCCl)cc1)C(=O)O", "note": "[medphalan]", "values": [{"measurement": "Activity against certain animal tumors relative to L-isomer", "setting": "certain animal tumors", "value": "less active"}]}
{"compound": "O=C(O)CCCc1ccc(N(CCCl)CCCl)cc1", "note": "[Chlorambucil, 4-(bis(2-chlorethyl)amino)benzenebutanoic acid]", "values": [{"measurement": "Absorption from the gastrointestinal tract", "setting": "[3]", "value": "rapidly and completely absorbed"}]}
{"compound": "CC[C@]1(O)C[C@@H]2CN(CCc3c([nH]c4ccccc34)[C@@](C(=O)OC)(c3cc4c(cc3OC)N(C)[C@H]3[C@@](O)(C(=O)OC)[C@H](OC(C)=O)[C@]5(CC)C=CCN6CC[C@]43[C@@H]65)C2)C1", "note": "[Vinblastine]", "values": [{"measurement": "Absorption after oral administration", "setting": "[4]; in vivo", "value": "Unpredictable absorption"}, {"measurement": "Dose recovered in the feces after biliary excretion", "setting": "[4]; in vivo", "value": "about 10%"}, {"measurement": "Plasma protein binding", "setting": "[4]; in vivo", "value": "bind to plasma proteins"}, {"measurement": "Plasma half-life after distribution (first)", "setting": "[4]; intravenous injection", "value": "approximately 1 hours"}, {"measurement": "Plasma half-life after distribution (second)", "setting": "[4]; intravenous injection", "value": "~72000", "unit": "s"}, {"measurement": "Peak concentration in plasma", "setting": "[4]; usual clinical doses", "value": "approximately 0.4 mM"}]}
{"compound": "Bleomycin", "values": [{"measurement": "Serum or plasma terminal elimination half-life", "setting": "[5]", "value": "approximately 115 minutes"}, {"measurement": "Concentration in hematopoietic tissue", "setting": "[6]", "value": "low concentrations"}, {"measurement": "Concentration in skin, lungs, kidneys, peritoneum, and lymphatics", "setting": "[6]", "value": "high concentrations"}]}
{"compound": "O.O=P1(N(CCCl)CCCl)NCCCO1", "note": "(stereo not shown) [Cyclophosphamide, 2H-1,3,2-Oxazaphosphorin-2-amine, N,N-bis(2-chloroethyl)tetrahydro-, 2-oxide, monohydrate]", "values": [{"measurement": "Stability in the gastrointestinal tract", "setting": "[7]", "value": "stable in the gastrointestinal tract"}]}
{"compound": "arsenic (III) oxide [Arsenic Trioxide]", "values": [{"measurement": "Plasma arsenic mean peak level", "setting": "[8]", "value": 6.85, "unit": "µmol/L"}, {"measurement": "t1/2α", "setting": "[8]", "value": "0.89 ± 0.29", "unit": "h"}, {"measurement": "t1/2β", "setting": "[8]", "value": "12.13 ± 3.31", "unit": "h"}]}
{"compound": "CC[C@]1(O)C[C@H]2CN(CCc3c([nH]c4ccccc34)[C@@](C(=O)OC)(c3cc4c(cc3OC)N(C=O)[C@H]3[C@@](O)(C(=O)OC)[C@H](OC(C)=O)[C@]5(CC)C=CCN6CC[C@]43[C@@H]65)C2)C1", "note": "[Vincristine]", "values": [{"measurement": "Absorption after oral administration", "setting": "[4]; in vivo", "value": "Unpredictable absorption"}, {"measurement": "Plasma protein binding", "setting": "[4]; in vivo", "value": "bind to plasma proteins"}, {"measurement": "Terminal half-life", "setting": "[4]; plasma", "value": "about 24 hours"}]}
{"compound": "O=NN(CCCl)C(=O)NC1CCCCC1", "note": "[Lomustine, 1-(2-chloro-ethyl)-3-cyclohexyl-1 nitrosourea]", "values": [{"measurement": "Radioactivity excreted as degradation products within 24 hours", "setting": "[9]", "value": "about half"}]}
{"compound": "CS(=O)(=O)OCCCCOS(C)(=O)=O", "note": "[busulfan, 1,4-butanediol dimethanesulfonate]", "values": [{"measurement": "Adults obtaining hematologic remission", "setting": "[10]", "value": "Approximately 90%"}]}
{"compound": "O=c1[nH]cc(F)c(=O)[nH]1", "note": "[5FU, Fluorouracil]", "values": [{"measurement": "Damage to small intestine and bone marrow cells", "setting": "[11]", "value": "severe damages"}, {"measurement": "Bone marrow cellularity", "setting": "[12]", "value": "Bone marrow cell exhaustion"}, {"measurement": "Damage to the small intestine", "setting": "[12]", "value": "severe damages"}, {"measurement": "Tumor volume response", "setting": "[13]", "value": "marked tumor regression"}, {"measurement": "Tumor volume response", "setting": "[14]", "value": "marked tumor regression"}, {"measurement": "Tumor volume response", "setting": "[15]", "value": "marked tumor regression"}]}
{"compound": "COc1cccc2c1C(=O)c1c(O)c3c(c(O)c1C2=O)C[C@@](O)([C@H](C)O)C[C@@H]3O[C@H]1C[C@H](N)[C@H](O)[C@H](C)O1", "note": "[daunorubicinol]", "values": [{"measurement": "Half-life of active metabolite", "setting": "[16]", "value": "about 27 hr"}]}
{"compound": "N[C@@H](Cc1ccc(N(CCCl)CCCl)cc1)C(=O)O", "note": "[Melphalan, 4-(bis(2-chloroethyl)amino)-L-phenylalanine]", "values": [{"measurement": "Patients showing a favorable response", "setting": "multiple myeloma", "value": "one third to one half"}]}
{"compound": "COc1cccc2c1C(=O)c1c(O)c3c(c(O)c1C2=O)C[C@@](O)(C(C)=O)C[C@@H]3O[C@H]1C[C@H](N)[C@H](O)[C@H](C)O1", "note": "[Daunorubicin, 5,12-Naphthacenedione, (8S-cis)-8-acetyl-10-(3-amino-2,3,6-trideoxy-a-L-lyxo-hexanopyranosyl)oxy)-7,8,9,10-tetrahydro-6,8,11-trihydroxy-10-methoxy hydrochloride]", "values": [{"measurement": "Oral absorption", "setting": "[16]; po", "value": "poor"}, {"measurement": "Half-life of elimination", "setting": "[16]", "value": "about 19 hr"}]}
{"compound": "N.N.[Cl][Pt][Cl]", "note": "[Cisplatin]", "values": [{"measurement": "Oral absorption", "setting": "[17]", "value": "not absorbed orally"}]}
{"compound": "COc1cccc2c1C(=O)c1c(O)c3c(c(O)c1C2=O)C[C@@](O)(C(=O)CO)C[C@@H]3O[C@H]1C[C@H](N)[C@H](O)[C@H](C)O1", "note": "[Doxorubicin, 5,12-Naphthacenedione, (8s-cis)-10-((3-amino-2,3,6-trideoxy-a-L-lyxo-hexopyranosyl)oxy)-7,8,9,10-tetrahydro-6,8,11-trihydroxy-8-(hydroxyacetyl)-1-methoxy-hydrochloride]", "values": [{"measurement": "Absorption", "setting": "[18]", "value": "absorbed poorly"}, {"measurement": "Elimination half-life", "setting": "[18]", "value": "about 30 hr"}, {"measurement": "Excreted into the urine", "setting": "[18]", "value": "a few percent"}]}
